The source of these data is patent US9656972B2, “Compounds for treatment of cystic fibrosis” (THE CALIFORNIA INSTITUTE FOR BIOMEDICAL RESEARCH, priority 2013, dated 2017).

Each structure is given as a SMILES string.

One data set has as its system guinea-pigs. Description: Tracheal potential difference (TPD) after intra-tracheal dosing in guinea pigs. The class given is in vivo. The note with it: guinea pig; for TPD (mV): i.t. instillation, mean; for TPD Assessment Time after i.t. Treatment 1 hr / TPD Assessment Time after i.t. Treatment 3 hr / TPD Assessment Time after i.t. Treatment 5 hr / TPD Assessment Time after i.t. Treatment 8 hr / TPD Assessment Time after i.t. Treatment 24 hr / TPD Assessment Time after i.t. Treatment 48 hr: Table 3, mean ± sem. An excerpt: Cystic fibrosis (CF) and chronic obstructive pulmonary disease (COPD) is dysregulated clearance of mucus across the cell layers lining the respiratory tract. A therapeutic strategy to treat these diseases is to inhibit these channels or the regulators of these channels in an effort to correct this mucus clearance defect. Potential difference is used in the clinic as a diagnostic tool for cystic fibrosis sufferers and for clinical trials. Small molecule inhibitors of these targets will enhance mucociliary clearance and thereby improve lung function and reduce the rate of exacerbations in cystic fibrosis (CF) and chronic obstructive pulmonary disease (COPD) patients. The guinea pig, unlike other rodents, has a lung structure which is roughly analogous to the human lung. For this reason, in terms of rodent models of lung function the guinea pig is often the model of choice for respiratory disease models including asthma, COPD and respiratory distress syndrome.
Preparation of Agar Bridges
Agar (3.5%) was dissolved in Hank's buffered salt solution (pH 7.4, 280-305 mosmkg_1H2O) by heating in a water bath at 100° C. A 30-40 cm length of polyethylene tubing, of which one end was bevelled at an angle of 20-60°, was then filled with the agar ensuring no air bubbles were formed or trapped within the tubing. The beveled tip of the tube was then dipped in the liquid agar, creating a small bulge. The exploring and reference electrodes constructed with the Hank's buffered salt solution/agar bridge were linked to a calomel half cell by immersion in 1M KCl.
Guinea pigs received a single dose of either the test article or vehicle instilled directly into the trachea. The animal was placed under short-term anesthesia using an inhaled isoflurane/nitrous oxide (N2O) 1:1 mixture (level 5/optimal for ˜10 sec.; 3.5/2 for 5 min.). At this suitable depth of anesthesia (loss of pedal and blink reflex), a single dose of either the test article, vehicle and/or positive control was instilled directly into the trachea. This was accomplished by very delicately inserted the 3″, 18 guage feeding tube into the trachea to preserve the potential difference of the mucosa. The guinea pig was allowed to recovered immediately; at times with the aid of supplemental O2. […] If there was apparent toxicity, animals were euthanized immediately and all observation was appropriately documented. As the animal was anesthetized during this treatment, no local anesthesia was necessary and there was no need to use a laryngoscope.
30 minutes prior to the 3 hr post dosing surgery each guinea pig received a dose of 0.4 mL of Midazolam-5 mg/mL, intra-peritoneal (i.p.) injection followed 25 minutes later with a 1 mL/kg of 50 mg/kg ketamine/6.5 mg/kg xylazine i.p. injection (previously prepared with 100 mg/mL ketamine and 25 mg/mL xylazine in Sterile Water for Injection USP mixed at 2:1:1 respectively). […] The trachea was exposed and visualized near the sternum using minimal blunt dissection. A lateral incision was made between the cartilaginous rings of the trachea close to the sternum. The beveled (distal) end of an exploring electrode was gently inserted into the lumen of the trachea moving in the direction towards the larynx, ensuring that spontaneous respiration was still possible. The beveled end of the reference electrode was positioned near the trachea in electrical contact with the flesh of the throat. A small volume of HBSS was applied into this region to ensure a good electrical contact. Potential difference was measured using a high impedance voltmeter (IsoMil) (5-0.5 cm increment measurement for verification—but only the initial placement value is recorded). The animal was terminated immediately after this procedure while still under anesthesia with an intra-cardiac dose of 0.5 mL of Euthasol.

Data set [1] can be described thus: Systemic (plasma) exposure after intratracheal dosing. The class given is in vivo, guinea pig. The note with it: 1 mg/kg single dose, compared with monomeric GS-9411. The protocol: A comparison of systemic (plasma exposure) of monomeric compound GS-9411 and dimeric compound 28 after intratracheal dosing was performed (at 1 mg/kg single dose).
Setting [2] is: Table 2 controls, dose 300 ug/kg, vehicle −12.4.
The mark [3] stands for this setting: Table 1, dose 30 ug/kg, 3 hr after dosing.
[4] abbreviates: Table 1, dose 300 ug/kg, 3 hr after dosing.
[5] abbreviates: Table 1, dose 0.2 ug/kg, 3 hr after dosing.

For `NC(=NCc1ccccc1)NC(=O)c1nc(Cl)c(N)nc1N` [Benzamil], the “TPD (mV)” value in the data set with guinea-pigs (setting [2]) is −6.2 mV. In addition, in the data set with guinea-pigs (300 μg/kg), the “TPD Assessment Time after i.t. Treatment 1 hr” value is −8.9 (1), the “TPD Assessment Time after i.t. Treatment 3 hr” value is −7.2 (1), the “TPD Assessment Time after i.t. Treatment 5 hr” value was −8.5 (1) and the “TPD Assessment Time after i.t. Treatment 8 hr” value was −6.5 (1). Moreover, in the data set on guinea-pigs (300 μg/kg), the “TPD Assessment Time after i.t. Treatment 24 hr” value is recorded as −4.8 (1) and the “TPD Assessment Time after i.t. Treatment 48 hr” value is −10.0 ± 0.07 (2).
On to `CN(C)C(=O)COC(=O)Cc1ccc(OC(=O)c2ccc(NC(=N)N)cc2)cc1` [Camostat], for which the “TPD (mV)” value in the data set on guinea-pigs (setting [2]) is given as −4.9 mV.
`N=C(NCCCCc1ccc(OCCOCCNC(=O)C(O)C(O)C(=O)NCCOCCOc2ccc(CCCCNC(=N)NC(=O)c3nc(Cl)c(N)nc3N)cc2)cc1)NC(=O)c1nc(Cl)c(N)nc1N` (stereo not drawn) [Compound 16]: in the data set on guinea-pigs (setting [3]), the “TPD (mV)” value was −6.30 mV.
In the case of `N=C(NCCCCc1ccc(OCCOCCOC(=O)NCCCCNC(=O)OCCOCCOc2ccc(CCCCNC(=N)NC(=O)c3nc(Cl)c(N)nc3N)cc2)cc1)NC(=O)c1nc(Cl)c(N)nc1N` [Compound 28], the “TPD (mV)” value in the data set with guinea-pigs (setting [4]) is reported as −4.00 mV. For the same compound, in the data set on guinea-pigs (30 μg/kg), the “TPD Assessment Time after i.t. Treatment 1 hr” value is −6.7 ± 0.65 (3), the “TPD Assessment Time after i.t. Treatment 3 hr” value is reported as −6.4 ± 0.60 (3), the “TPD Assessment Time after i.t. Treatment 5 hr” value is on record as −5.4 ± 1.03 (3) and the “TPD Assessment Time after i.t. Treatment 8 hr” value is recorded as −5.1 ± 0.54 (3). In the data set with guinea-pigs (30 μg/kg), the “TPD Assessment Time after i.t. Treatment 24 hr” value is −5.9 ± 0.18 (3) and the “TPD Assessment Time after i.t. Treatment 48 hr” value is −9.6 ± 1.43 (3). Moreover, in data set [1], the “lower AUC (total area under the curve) versus GS-9411” value came out at 5 fold and the “lower Cmax (maximal concentration) versus GS-9411” value is recorded as 20 ×.
`N=C(NCCCCc1ccc(OCCOCCNC(=O)NCCCCNC(=O)NCCOCCOc2ccc(CCCCNC(=N)NC(=O)c3nc(Cl)c(N)nc3N)cc2)cc1)NC(=O)c1nc(Cl)c(N)nc1N` [Compound 37]: the entries for the “TPD (mV)” value in the data set with guinea-pigs (setting [3]) and in the data set with guinea-pigs (setting [4]) were −7.50 mV and −5.50 mV, respectively.
Turning to `COC(=O)C(CCCC(NC(=O)OCCOCCOc1ccc(CCCCNC(=N)NC(=O)c2nc(Cl)c(N)nc2N)cc1)C(=O)OC)NC(=O)OCCOCCOc1ccc(CCCCNC(=N)NC(=O)c2nc(Cl)c(N)nc2N)cc1` (stereo not drawn) [Compound 46], in the data set with guinea-pigs (setting [3]), the “TPD (mV)” value is −7.30 mV.
As to `N=C(N)Nc1ccc(C(=O)Oc2ccc3cc(C(=N)NCCOCCOCCNC(=N)c4ccc5cc(OC(=O)c6ccc(NC(=N)N)cc6)ccc5c4)ccc3c2)cc1` [Compound 50], the “TPD (mV)” value in the data set on guinea-pigs (setting [4]) was −6.20 mV.
On to `N=C(N)Nc1ccc(C(=O)Oc2ccc(CC(=O)OCC(=O)NCCOCCOCCNC(=O)COC(=O)Cc3ccc(OC(=O)c4ccc(NC(=N)N)cc4)cc3)cc2)cc1` [Compound 53], for which the “TPD (mV)” value in the data set on guinea-pigs (setting [3]) is recorded as −9.3 mV.
As to `N=C(NCCCCc1ccc(OCCOCCOCCOCCOCCO)cc1)NC(=O)c1nc(Cl)c(N)nc1N` [Compound 66], the “TPD (mV)” value in the data set on guinea-pigs (setting [3]) is given as −7.80 mV.
Consider `N=C(NCCCCc1ccc(OCCOCCNC(=O)CCC(=O)NCCOCCOc2ccc(CCCCNC(=N)NC(=O)c3nc(Cl)c(N)nc3N)cc2)cc1)NC(=O)c1nc(Cl)c(N)nc1N` [Compound 67], for which the “TPD (mV)” value in the data set with guinea-pigs (setting [5]) is reported as −7.0 mV.
As to `N=C(NCCCCc1ccc(OCCOCCOCCNC(=O)CCC(=O)NCCOCCOCCOc2ccc(CCCCNC(=N)NC(=O)c3nc(Cl)c(N)nc3N)cc2)cc1)NC(=O)c1nc(Cl)c(N)nc1N` [Compound 68], the “TPD (mV)” value in the data set with guinea-pigs (setting [5]) is listed as −6.9 mV.
Turning to `N=C(NCCCCc1ccc(OCCOCCOCCNC(=O)C(=O)NCCOCCOCCOc2ccc(CCCCNC(=N)NC(=O)c3nc(Cl)c(N)nc3N)cc2)cc1)NC(=O)c1nc(Cl)c(N)nc1N` [Compound 69], the “TPD (mV)” value in the data set with guinea-pigs (setting [3]) was −6.3 mV.
